Values belong to the compound of their own block, whether it stands above or below them.
Experiments:
SIRT1 [1] = target: T1, SIRT1 (Homo sapiens, UniProt Q96EB6); assay: Trp mass spectrometry assay of SIRT1 deacetylase activation; assay type: biochemical; settings: Trp peptide substrate; for TRP EC1.5 (μM): concentration that results in 150% activation of SIRT1; for TRP % Fold Act: percent maximum fold activation relative to control (100%)
T1 sequence (Q96EB6 1-747): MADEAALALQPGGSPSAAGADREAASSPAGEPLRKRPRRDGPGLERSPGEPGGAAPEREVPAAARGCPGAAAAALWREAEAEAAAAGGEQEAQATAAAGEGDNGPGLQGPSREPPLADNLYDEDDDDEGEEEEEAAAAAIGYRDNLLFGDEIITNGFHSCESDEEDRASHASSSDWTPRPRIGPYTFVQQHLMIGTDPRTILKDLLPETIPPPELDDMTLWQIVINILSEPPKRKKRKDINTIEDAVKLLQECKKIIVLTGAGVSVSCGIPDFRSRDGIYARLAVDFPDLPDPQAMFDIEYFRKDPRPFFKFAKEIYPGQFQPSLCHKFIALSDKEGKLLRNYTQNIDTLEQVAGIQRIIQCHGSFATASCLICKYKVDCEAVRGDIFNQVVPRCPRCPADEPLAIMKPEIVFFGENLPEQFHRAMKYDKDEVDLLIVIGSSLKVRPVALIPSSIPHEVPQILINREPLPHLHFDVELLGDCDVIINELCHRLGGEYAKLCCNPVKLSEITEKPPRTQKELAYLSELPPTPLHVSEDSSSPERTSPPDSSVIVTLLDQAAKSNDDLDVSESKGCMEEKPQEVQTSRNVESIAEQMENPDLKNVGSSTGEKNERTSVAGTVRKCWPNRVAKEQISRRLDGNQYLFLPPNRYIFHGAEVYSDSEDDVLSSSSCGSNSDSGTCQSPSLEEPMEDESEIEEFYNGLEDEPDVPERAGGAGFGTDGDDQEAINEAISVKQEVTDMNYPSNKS
Description: (§1) Mass spectrometry based assays were used to identify modulators of SIRT1 activity. The TAMRA based assay utilized a peptide having 20 amino acid residues as follows: Ac-EE-K(biotin)-GQSTSSHSK(Ac)NleSTEG-K(5TMR)-EE-NH2 (SEQ ID NO: 1), wherein K(Ac) is an acetylated lysine residue and Nle is a norleucine. The peptide was labeled with the fluorophore 5TMR (excitation 540 nm/emission 580 nm) at the C-terminus. The sequence of the peptide substrate was based on p53 with several modifications. In addition, the methionine residue naturally present in the sequence was replaced with the norleucine because the methionine may be susceptible to oxidation during synthesis and purification. The Trp based assay utilized a peptide having an amino acid residues as follows: Ac-R-H-K-K(Ac)-W-NH2 (SEQ ID NO: 2).
The Trp mass spectrometry assay was conducted as follows. 0.5 μM peptide substrate and 120 μM βNAD^+ were incubated with 10 nM SIRT1 for 25 minutes at 25° C. in a reaction buffer (50 mM HEPES pH 7.5, […], 1 mM DTT, 0.05% BSA). The SIRT1 protein was obtained by cloning the SirT1 gene into a T7-promoter containing vector, which was then expressed in BL21(DE3) bacterial cells and purified as described in further detail below. Test compound was added at varying concentrations to this reaction mixture and the resulting reactions were monitored. After the 25 minute incubation with SIRT1, 10 μL of 10% formic acid was added to stop the reaction. The resulting reactions were sealed and frozen for later mass spec analysis. The relative SIRT1 activity was then determined by measuring the amount of O-acetyl-ADP-ribose (OAADPR) formed (or, alternatively, the amount of deacetylated Trp peptide generated) by the NAD-dependent sirtuin deacetylation reaction in the presence of varying concentrations of the test compound versus control reactions lacking the test compound. The degree to which the test agent activated deacetylation by SIRT1 was expressed as EC1.5 (i.e., the concentration of compound required to increase SIRT1 activity by 50% over the control lacking test compound), and Percent Maximum Activation (i.e., the maximum activity relative to control (100%) obtained for the test compound).
(§2) A control for inhibition of sirtuin activity was conducted by adding 1 μL of 500 mM nicotinamide as a negative control at the start of the reaction (e.g., permits determination of maximum sirtuin inhibition). A control for activation of sirtuin activity was conducted using 10 nM of sirtuin protein, with 1 μL of DMSO in place of compound, to determine the amount of deacetylation of the substrate at a given time point within the linear range of the assay. This time point was the same as that used for test compounds and, within the linear range, the endpoint represents a change in velocity. For the above assay, SIRT1 protein was expressed and purified as follows. The SirT1 gene was cloned into a T7-promoter containing vector and transformed into BL21(DE3). The protein was expressed by induction with 1 mM IPTG as an N-terminal His-tag fusion protein at 18° C. overnight and harvested at 30,000×g. Cells were lysed with lysozyme in lysis buffer (50 mM Tris-HCl, 2 mM Tris[2-carboxyethyl] phosphine (TCEP), 10 μM ZnCl2, 200 mM NaCl) and further treated with sonication for 10 min for complete lysis. The protein was purified over a Ni-NTA column (Amersham) and fractions containing pure protein were pooled, concentrated and run over a sizing column (Sephadex S200 26/60 global). The peak containing soluble protein was collected and run on an Ion-exchange column (MonoQ). Gradient elution (200 mM-500 mM NaCl) yielded pure protein. This protein was concentrated and dialyzed against dialysis buffer (20 mM Tris-HCl, 2 mM TCEP) overnight. The protein was aliquoted and frozen at −80° C. until further use.
Sirtuin-modulating compounds of Formula (I) that activated SIRT1 were identified using the assay described above and are shown below in Table 1. […]

SIRT1 [2] = target: T1, SIRT1; assay: TAMRA based mass spectrometry assay of SIRT1 deacetylase activation; assay type: biochemical; settings: TAMRA peptide substrate; for TAMRA EC1.5 (μM): concentration that results in 150% activation of SIRT1; for TAMRA % Fold Act: percent maximum fold activation relative to control (100%)
Description: as §1
The TAMRA based mass spectrometry assay was conducted as follows: 0.5 μM peptide substrate and 120 μM βNAD^+ was incubated with 10 nM SIRT1 for 25 minutes at 25° C. in a reaction buffer (50 mM Tris-acetate pH 8, 137 mM NaCl, 2.7 mM KCl, 1 mM MgCl2, 5 mM DTT, 0.05% BSA). The SIRT1 protein was obtained by cloning the SirT1 gene into a T7-promoter containing vector, which was then transformed and expressed in BL21(DE3) bacterial cells. Test compound was added at varying concentrations to this reaction mixture and the resulting reactions were monitored. After the 25 minute incubation with SIRT1, 10 μL of 10% formic acid was added to stop the reaction. The resulting reactions were sealed and frozen for later mass spec analysis. Determination of the amount of deacetylated substrate peptide formed (or, alternatively, the amount of O-acetyl-ADP-ribose (OAADPR) generated) by the sirtuin-mediated NAD-dependent deacetylation reaction allowed for the precise measurement of relative SIRT1 activity in the presence of varying concentrations of the test compound versus control reactions lacking the test compound.
as §2
Sirtuin-modulating compounds of Formula (I) that activated SIRT1 were identified using the assay described above and are shown below in Table 1. The EC1.5 values represent the concentration of test compounds that result in 150% activation of SIRT1. The EC1.5 values for the activating compounds of Formula (I) are represented by A (EC1.5<1 μM), B (EC1.5 1−25 μM), C (EC1.5>25 μM). […]

TRP EC1.5 (μM) (SIRT1 [1]): C (EC1.5>25 μM)
TRP % Fold Act (SIRT1 [1]): B (Fold Activation<350%)
TAMRA EC1.5 (μM) (SIRT1 [2]): B (EC1.5 1−25 μM)
TAMRA % Fold Act (SIRT1 [2]): B (Fold Activation<350%)
Compound: O=C(Nc1ccnc2cc(-c3ccccc3C(F)(F)F)nn12)c1nccs1 [Compound 93]

TRP EC1.5 (μM) (SIRT1 [1]): C (EC1.5>25 μM)
TRP % Fold Act (SIRT1 [1]): B (Fold Activation<350%)
Compound: Cc1nc(C(=O)Nc2ccnc3cc(-c4cccc(C(F)(F)F)c4)nn23)c(C)s1 [Compound 68]

TRP EC1.5 (μM) (SIRT1 [1]): C (EC1.5>25 μM)
TRP % Fold Act (SIRT1 [1]): B (Fold Activation<350%)
Compound: Cc1nc(C(=O)Nc2ccnc3cc(-c4cccc(C(F)(F)F)c4)nn23)cs1 [Compound 67]

TAMRA EC1.5 (μM) (SIRT1 [2]): C (EC1.5>25 μM)
TAMRA % Fold Act (SIRT1 [2]): B (Fold Activation<350%)
Compound: O=C(Nc1ccnc(N2CCOCC2)c1)c1ccnn2cc(-c3cccc(C(F)(F)F)c3)nc12 [Compound 19]

TRP EC1.5 (μM) (SIRT1 [1]): C (EC1.5>25 μM)
TRP % Fold Act (SIRT1 [1]): B (Fold Activation<350%)
Compound: O=C(Nc1ccnc2cc(-c3cccc(C(F)(F)F)c3)nn12)c1cnccn1 [Compound 72]

TAMRA EC1.5 (μM) (SIRT1 [2]): C (EC1.5>25 μM)
TAMRA % Fold Act (SIRT1 [2]): B (Fold Activation<350%)
Compound: O=C(Nc1cccnc1)c1cc(N2CCOCC2)nn2cc(-c3cccc(C(F)(F)F)c3)nc12 [Compound 50]

TAMRA EC1.5 (μM) (SIRT1 [2]): B (EC1.5 1−25 μM)
TAMRA % Fold Act (SIRT1 [2]): B (Fold Activation<350%)
Compound: O=C(Nc1ccnc(N2CCOCC2)c1)c1ccnn2cc(-c3ccccc3Cl)nc12 [Compound 9]

TAMRA EC1.5 (μM) (SIRT1 [2]): C (EC1.5>25 μM)
TAMRA % Fold Act (SIRT1 [2]): B (Fold Activation<350%)
Compound: O=C(Nc1ccnc(N2CCOCC2)c1)c1ccnn2cc(-c3ccccc3F)nc12 [Compound 7]

TAMRA EC1.5 (μM) (SIRT1 [2]): C (EC1.5>25 μM)
TAMRA % Fold Act (SIRT1 [2]): B (Fold Activation<350%)
Compound: O=C(Nc1cccc(N2CCOCC2)n1)c1ccnn2cc(-c3cccc(F)c3)nc12 [Compound 11]

TRP EC1.5 (μM) (SIRT1 [1]): B (EC1.5 1−25 μM)
TRP % Fold Act (SIRT1 [1]): B (Fold Activation<350%)
Compound: O=C(Nc1nccs1)c1cc(N2CCOCC2)nn2cc(-c3ccccc3Cl)nc12 [Compound 34]

TAMRA EC1.5 (μM) (SIRT1 [2]): C (EC1.5>25 μM)
TAMRA % Fold Act (SIRT1 [2]): B (Fold Activation<350%)
Compound: O=C(Nc1ccncc1)c1cc(N2CCOCC2)nn2cc(-c3cccc(C(F)(F)F)c3)nc12 [Compound 51]

TAMRA EC1.5 (μM) (SIRT1 [2]): C (EC1.5>25 μM)
TAMRA % Fold Act (SIRT1 [2]): B (Fold Activation<350%)
Compound: O=C(Nc1cccc(N2CCOCC2)n1)c1ccnn2cc(-c3cccc(Cl)c3)nc12 [Compound 24]

TAMRA EC1.5 (μM) (SIRT1 [2]): A (EC1.5<1 μM)
TAMRA % Fold Act (SIRT1 [2]): B (Fold Activation<350%)
Compound: O=C(Nc1cccc(N2CCOCC2)n1)c1ccnn2cc(-c3cccc(C(F)(F)F)c3)nc12 [Compound 20]

Continued, compound first:

Compound: O=C(Nc1cccc(N2CCOCC2)n1)c1ccnc2cc(-c3ccccc3C(F)(F)F)nn12 [Compound 82]
TRP EC1.5 (μM) (SIRT1 [1]): C (EC1.5>25 μM)
TRP % Fold Act (SIRT1 [1]): B (Fold Activation<350%)
TAMRA EC1.5 (μM) (SIRT1 [2]): A (EC1.5<1 μM)
TAMRA % Fold Act (SIRT1 [2]): A (Fold activation≧350%)

Compound: O=C(Nc1cccnc1)c1cc(N2CCOCC2)nn2cc(-c3ccccc3Cl)nc12 [Compound 52]
TAMRA EC1.5 (μM) (SIRT1 [2]): C (EC1.5>25 μM)
TAMRA % Fold Act (SIRT1 [2]): B (Fold Activation<350%)

Compound: Cc1cnc(NC(=O)c2cc(N3CCOCC3)nn3cc(-c4ccccc4Cl)nc23)s1 [Compound 35]
TRP EC1.5 (μM) (SIRT1 [1]): C (EC1.5>25 μM)
TRP % Fold Act (SIRT1 [1]): B (Fold Activation<350%)

Compound: Cc1cnc(NC(=O)c2cc(N3CCOCC3)nn3cc(-c4cccc(Cl)c4)nc23)s1 [Compound 31]
TAMRA EC1.5 (μM) (SIRT1 [2]): C (EC1.5>25 μM)
TAMRA % Fold Act (SIRT1 [2]): B (Fold Activation<350%)

Compound: O=C(Nc1ccncc1)c1cc(N2CCOCC2)nn2cc(-c3ccccc3Cl)nc12 [Compound 53]
TAMRA EC1.5 (μM) (SIRT1 [2]): C (EC1.5>25 μM)
TAMRA % Fold Act (SIRT1 [2]): B (Fold Activation<350%)

Compound: O=C(Nc1nccs1)c1ccnn2cc(-c3ccccc3Cl)nc12 [Compound 3]
TAMRA EC1.5 (μM) (SIRT1 [2]): C (EC1.5>25 μM)
TAMRA % Fold Act (SIRT1 [2]): B (Fold Activation<350%)

Compound: O=C(Nc1ccccn1)c1ccnc2cc(-c3cccc(C(F)(F)F)c3)nn12 [Compound 84]
TRP EC1.5 (μM) (SIRT1 [1]): C (EC1.5>25 μM)
TRP % Fold Act (SIRT1 [1]): B (Fold Activation<350%)

Compound: Cc1cnc(C(=O)Nc2ccnc3cc(-c4cccc(C(F)(F)F)c4)nn23)s1 [Compound 69]
TRP EC1.5 (μM) (SIRT1 [1]): C (EC1.5>25 μM)
TRP % Fold Act (SIRT1 [1]): B (Fold Activation<350%)

Compound: Cc1cnc(NC(=O)c2cc(N3CCOCC3)nn3cc(-c4ccccc4F)nc23)s1 [Compound 38]
TRP EC1.5 (μM) (SIRT1 [1]): C (EC1.5>25 μM)
TRP % Fold Act (SIRT1 [1]): B (Fold Activation<350%)

Compound: O=C(Nc1ccnc(N2CCOCC2)c1)c1ccnn2cc(-c3ccccc3C(F)(F)F)nc12 [Compound 15]
TAMRA EC1.5 (μM) (SIRT1 [2]): A (EC1.5<1 μM)
TAMRA % Fold Act (SIRT1 [2]): A (Fold activation≧350%)

Source: patent publication US20140288052A1, “SUBSTITUTED BICYCLIC AZA-HETEROCYCLES AND ANALOGUES AS SIRTUIN MODULATORS” (GlaxoSmithKline, LLC, priority 2011, published 2014)
